Test system: CYP24 protein in HEK cells
Assay: CYP24 protein expression in HEK cells, Western blot with anti-CYP24 mAb and densitometric analysis
Type: cell-based, human
Conditions: 10 nM
Procedure: • Human Epidermal Keratinocyte Cells (HEK) cells (CYP24 expressing cells) • Keratinocyte Growth Medium (KGM®; Cambrex) • HEK Cell Lysis Buffer (0.5 M Tris, pH 6.8, 10% SDS, glycerol, dH2O, protease inhibitor) • 1.7 ml eppendorf tubes • Isopropanol • Enhanced Chemiluminescense (ECL) Western Blotting Detection Reagants (Amersham Pharmacia) • 10 nM Calcitriol (Vitamin D) • 10 nM CTAX (Cytochroma Inc.) (“Vitamin D analog”) • 10 nM CTAY (Cytochroma Inc.) (“Vitamin D analog”) • 10 nM CTAZ (Cytochroma Inc.) (“Vitamin D analog”) • 6-well plates (i) HEK Cell Preparation Method:
125 thousand HEK cells per well were placed in 2.5 ml KGM® (2 plates) and incubated overnight @ 37° C. in 5% CO2. After 24 hours, old KGM® was replaced with fresh 2.5 ml KGM®. For 48 hour samples (Plate 1): 2.5 μl isopropanol was added to 1 well; 2.5 μl 10 μM calcitriol was added to 1 well; 2.5 μl 10 μM CTAX was added to 1 well; 2.5 μl 10 μM CTAY was added to 1 well; 2.5 μl […] was added to 1 well. […]
The effect of CYP24 protein expression in HEK cells treated with CYP24 inhibitors was investigated. […] Cell lysates were then analyzed for CYP24 protein by Western blot analysis using anti-CYP24 mAb as the primary antibody. Each sample was expressed as a relative amount of CYP24 protein compared to the control (control=1 unit).

Compound: C=C1/C(=C\C=C2/CCC[C@]3(C)[C@@H]([C@H](C)CCCC(C)(C)O)CC[C@@H]23)C[C@@H](O)C[C@@H]1O [Calcitriol]
- induction of CYP24 protein (relative to control = 1 unit) (24 hours): weakly induces
- induction of CYP24 protein (relative to control = 1 unit) (48 hours): weakly induces
